Source: US20100143935A1, “c-KIT Phosphorylation in Cancer” (Apocell, Inc., priority 2006, published 2010)
Entries after “also recorded” stand apart in the source; their conditions may differ.

Experiments:
[1] = system: endothelial and tumor cells; assay: CD31-TUNEL dual immunofluorescence of tumor biopsies before and 2 weeks after imatinib; assay type: in vivo, human; conditions: for apoptosis of endothelial and tumor cells: responder, after 2 weeks of imatinib treatment
From the text: FIG. 4. […] The stained samples were further analyzed for apoptotic cells by TUNEL assay (green). Representative images are shown. The corresponding CD31 and TUNEL images are merged (Composite).

melanoma = conditions: 800 mg/day; 26 patients; cited from earlier work
[2] = system: c-KIT phosphorylation at Y721; assay: Laser scanning cytometry of phospho-Y721 c-KIT in tumor biopsies before and 2 weeks after imatinib; assay type: in vivo, human; conditions: responder, tumor biopsy 2 weeks after treatment vs baseline
From the text: FIG. 2. […] Tumor biopsies were stained by anti-phospho-Y721 c-KIT antibody followed by secondary antibody conjugated with a fluorescence probe. Laser scanning cytometry (LSC) was used to analyze the […] (MFI) across the tumor biopsies.
FIG. 3. […] (Top panels), Tumor biopsies obtained from the responder at baseline and 2 weeks after treatment (Post-treatment) were stained by anti-phospho-Y721 c-KIT antibody followed by secondary antibody conjugated with a fluorescence probe. Representative images are shown. The tumor sample stained only by the secondary antibody serves as a negative control. (Bottom panels), LSC was used to analyze the intensity of the phospho-Y721 of c-KIT (Cy5) across the entire cross section of tumor biopsies.
For c-KIT phosphorylation, tumor biopsies obtained at baseline (pre-treatment) and during the second week of treatment (post-treatment) were assayed. […] We also examined the levels of phospho-Y703.

[3] = system: MeWo stable cell lines expressing PK or with PTP knock down; assay: Imatinib sensitivity of stable MeWo cell lines expressing PK or with PTP knock down; assay type: cell-based, human; conditions: PK-expressing or PTP knock down lines vs empty vector control cells
Phospho-c-KIT (Y703) = target: T1, Phospho-c-KIT (Y703) (Homo sapiens, UniProt P10721); assay: c-KIT phosphorylation (Y703) in GIST patients treated with sunitinib; assay type: in vivo
T1 construct: GIST Patients Treated with Sunitinib; from tissue; host or cells: tumour material of GIST patients treated with sunitinib
T1 sequence (P10721 26-976): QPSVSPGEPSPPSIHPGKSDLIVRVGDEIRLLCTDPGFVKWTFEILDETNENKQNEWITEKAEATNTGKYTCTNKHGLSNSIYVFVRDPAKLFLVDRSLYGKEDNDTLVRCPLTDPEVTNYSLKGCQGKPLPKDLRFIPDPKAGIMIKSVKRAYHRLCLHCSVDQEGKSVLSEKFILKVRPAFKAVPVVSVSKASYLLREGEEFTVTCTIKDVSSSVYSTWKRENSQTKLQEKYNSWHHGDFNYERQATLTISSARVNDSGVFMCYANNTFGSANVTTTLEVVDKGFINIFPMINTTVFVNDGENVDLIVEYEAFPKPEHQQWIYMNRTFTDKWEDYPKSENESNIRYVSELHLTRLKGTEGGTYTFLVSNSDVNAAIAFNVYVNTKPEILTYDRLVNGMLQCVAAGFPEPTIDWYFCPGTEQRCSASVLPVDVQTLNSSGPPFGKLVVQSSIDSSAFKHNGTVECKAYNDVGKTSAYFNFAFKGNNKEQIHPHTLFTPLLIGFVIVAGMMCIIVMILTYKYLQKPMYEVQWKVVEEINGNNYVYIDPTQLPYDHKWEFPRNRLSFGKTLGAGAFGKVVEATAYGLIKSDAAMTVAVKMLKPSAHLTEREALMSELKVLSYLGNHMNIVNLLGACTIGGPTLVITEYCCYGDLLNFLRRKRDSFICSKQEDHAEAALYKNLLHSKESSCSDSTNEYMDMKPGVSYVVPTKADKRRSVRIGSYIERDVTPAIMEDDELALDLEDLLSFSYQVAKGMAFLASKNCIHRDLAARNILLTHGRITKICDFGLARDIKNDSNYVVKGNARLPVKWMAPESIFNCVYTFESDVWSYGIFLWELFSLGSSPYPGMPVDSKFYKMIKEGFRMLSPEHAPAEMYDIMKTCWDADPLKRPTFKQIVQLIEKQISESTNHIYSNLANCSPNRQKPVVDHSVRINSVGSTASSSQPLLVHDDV

Phospho-c-KIT (Y721) = target: T2, Phospho-c-KIT (Y721) (Homo sapiens, UniProt P10721); assay: c-KIT phosphorylation (Y721) in GIST patients treated with sunitinib; assay type: in vivo
T2 construct: GIST Patients Treated with Sunitinib; from tissue; host or cells: tumour material of GIST patients treated with sunitinib
T2 sequence (P10721 26-976): as above

Row | Phospho-c-KIT (Y703) change (Phospho-c-KIT (Y703); NON-Responder) [% increase] | Phospho-c-KIT (Y703) change (Phospho-c-KIT (Y703); Responder) [% decrease] | Phospho-c-KIT (Y721) change (Phospho-c-KIT (Y721); NON-Responder) [% increase] | Phospho-c-KIT (Y721) change (Phospho-c-KIT (Y721); Responder) [% decrease] | SMILES | increase of apoptotic endothelial and tumor cells ([1]; nonresponding patients' tumors) | apoptosis of endothelial and tumor cells [1] | apoptosis of endothelial and tumor cells ([1]; listed as imatinib) | toxicity (melanoma) | levels of phospho-Y721 of c-KIT after imatinib treatment [2] | levels of phospho-Y721 of c-KIT after imatinib treatment ([2]; listed as imatinib) | sensitivity to imatinib-induced growth inhibition and apoptosis [3]
1 | – | – | – | – | Cc1ccc(NC(=O)c2ccc(CN3CCN(C)CC3)cc2)cc1Nc1nccc(-c2cccnc2)n1 [Imatinib] | not seen | induces | higher levels of apoptosis; also recorded: substantial increase | significant toxicity | inhibits | significantly reduced; also recorded: significant inhibition | more sensitive
2 | 45 | 57 | 117 | 94 | CCN(CC)CCNC(=O)c1c(C)[nH]c(/C=C2\C(=O)Nc3ccc(F)cc32)c1C [Sunitinib, N-[2-(diethylamino)ethyl]-5-[(Z)-(5-fluoro-2-oxo-1,2-dihydro-3H-indol-3-ylidene)methyl]-2,4-dimethyl-1H-pyrrole-3-carboxamide] | – | – | – | – | – | – | –
